Data: publication PMC10004777 (Molecules, 2023)

Assays:
[1] = tested on: MCF-7 breast cancer cells; test: Cell viability (MTT) assay, MCF-7; format: cell-based; conditions: for anti-proliferation activity on MCF-7 compared with GAA: MCF-7, 48 h
Protocol: MCF-7 is a commonly used tumor cell line.
(§1) The cell lines present in this study were obtained from Procell Life Science & Technology Co. Ltd. MCF-7, HepG2 and SJSA-1 cells were cultured in DMEM medium (DMEM, Gibco) supplemented with 10% fetal bovine serum (FBS, Gibco), 1% penicillin-streptomycin (Hyclone) at 37℃ in a humid environment with 5% CO2. HK-2 cells were cultured in DMEM/F12 (1:1) medium and placed in incubators in the same environment.
(§2) Cell viability was determined by MTT assay. MCF-7, HepG2, SJSA-1 and HK-2 cells (6 × 10^3 cells /well) were seeded in 96-well plates with serum-free medium for 24 h. […] After 48 or 72 h, 10 μL MTT (5 mg/mL, Beyotime) was added and incubated at 37 °C for 4 h. Then 100 μL of lysate was added. After complete dissolution of the crystal, the absorbance was measured at 540 nm and expressed as the average percentage of absorbance between treated and control cells. The value for control cells was set at 100%. Cell survival rate was calculated as the ratio of the absorbance of the cells and negative control after minus the blank absorbance respectively.

[2] = tested on: HepG2 cells; test: Cell viability (MTT) assay, HepG2; format: cell-based; conditions: for anti-proliferation activity on HepG2 (in words): HepG2, 48 h
Protocol: (§3) To investigate the selectivity of these derivatives towards different tumor cell lines, we also selected HepG2 and osteosarcoma cell line SJSA-1 cells to evaluate the anti-proliferation activity of the derivatives. […] Except for compounds A2 and A11, the effects of other compounds on SJSA-1 were not strong.
as §1, §2

[3] = tested on: osteosarcoma cell line SJSA-1; test: Cell viability (MTT) assay, SJSA-1; format: cell-based
Protocol: as §3, §1, §2

[4] = tested on: HK-2 cells; test: Cell viability (MTT) assay, HK-2 normal cells (cytotoxicity); format: cell-based
Protocol: as §1, §2

| Compound | Viability of Cells (% of Control) ([1]; 25 µM) | Viability of Cells (% of Control) ([1]; 100 µM) | anti-proliferation activity on MCF-7 compared with GAA [1] | Viability of Cells (% of Control) ([2]; 25 µM) | Viability of Cells (% of Control) ([2]; 50 µM) | anti-proliferation activity on HepG2 (in words) [2] | Viability of Cells (% of Control) ([3]; 50 µM) | Viability of Cells (% of Control) ([3]; 100 µM) | toxicity to HK2 cells (in words) [4] | Viability of Cells (% of Control) ([4]; 50 µM) | Viability of Cells (% of Control) ([4]; 100 µM) | melting point [°C] | Viability of Cells (% of Control) ([1]; 50 µM) |
| --- | --- | --- | --- | --- | --- | --- | --- | --- | --- | --- | --- | --- | --- |
| C[C@H](CC(=O)C[C@@H](C)[C@H]1C[C@H](O)[C@@]2(C)C3=C(C(=O)C[C@]12C)[C@@]1(C)CCC(=O)C(C)(C)[C@@H]1C[C@@H]3O)C(=O)NCc1ccc(Cl)cc1 [Compound A7, (4-Chlorobenzyl)-(7β,15α,25R)-7,15-Dihydroxy-3,11,23-Trioxolanost-8-en-26-oic Amide] | 73.5 ± 4.0 % of Control | 75.1 ± 13.2 % of Control | significant anti-proliferation activities | 73.8 ± 1.2 % of Control | 53.4 ± 1.0 % of Control | potent anti-proliferation activity | 81.6 ± 2.8 % of Control | 77.1 ± 4.6 % of Control | some toxicity | 86.2 ± 3.7 % of Control | 81.3 ± 3.3 % of Control | 188.6 to 189.4 |  |
| C[C@H](CC(=O)C[C@@H](C)[C@H]1C[C@H](O)[C@@]2(C)C3=C(C(=O)C[C@]12C)[C@@]1(C)CCC(=O)C(C)(C)[C@@H]1C[C@@H]3O)C(=O)NCc1cc(Cl)cc(Cl)c1 [Compound A8, (3,5-Dichlorobenzyl)-(7β,15α,25R)-7,15-Dihydroxy-3,11,23-Trioxolanost-8-en-26-oic Amide] | 63.3 ± 8.3 % of Control | 39.4 ± 5.8 % of Control | significant anti-proliferation activities | 54.2 ± 2.0 % of Control | 48.1 ± 1.5 % of Control | potent anti-proliferation activity | 92.4 ± 1.4 % of Control | 80.4 ± 4.7 % of Control |  | 107.8 ± 14.3 % of Control | 91.0 ± 2.4 % of Control | 182.6 to 183.8 |  |
| C[C@H](CC(=O)C[C@@H](C)[C@H]1C[C@H](O)[C@@]2(C)C3=C(C(=O)C[C@]12C)[C@@]1(C)CCC(=O)C(C)(C)[C@@H]1C[C@@H]3O)C(=O)NC1Cc2ccccc2C1 [Compound A9, (2,3-Dihydro-1H-inden-2-yl)-(7β,15α,25R)-7,15-Dihydroxy-3,11,23-Trioxolanost-8-en-26-oic Amide] | 87.5 ± 7.6 % of Control | 40.3 ± 7.8 % of Control | significant anti-proliferation activities | 64.2 ± 1.4 % of Control | 52.4 ± 2.1 % of Control | potent anti-proliferation activity | 99.2 ± 2.6 % of Control | 89.6 ± 3.8 % of Control | some toxicity | 79.0 ± 2.9 % of Control | 80.1 ± 2.8 % of Control | 199.7 to 200.3 | 53.3 ± 6.9 % of Control |
| C[C@H](CC(=O)C[C@@H](C)[C@H]1C[C@H](O)[C@@]2(C)C3=C(C(=O)C[C@]12C)[C@@]1(C)CCC(=O)C(C)(C)[C@@H]1C[C@@H]3O)C(=O)N1CCN(C)CC1 [Compound A13, (4-Methylpiperazin-1-yl)-(7β,15α,25R)-7,15-Dihydroxy-3,11,23-Trioxolanost-8-en-26-oic Amide] | 113.6 ± 2.1 % of Control | 102.7 ± 3.5 % of Control |  | 104.4 ± 2.0 % of Control | 99.3 ± 4.9 % of Control |  | 87.6 ± 3.8 % of Control | 77.6 ± 3.5 % of Control |  |  |  | 173.2 to 174.9 | 107.3 ± 9.1 % of Control |
| CCN1CCN(C(=O)[C@H](C)CC(=O)C[C@@H](C)[C@H]2C[C@H](O)[C@@]3(C)C4=C(C(=O)C[C@]23C)[C@@]2(C)CCC(=O)C(C)(C)[C@@H]2C[C@@H]4O)CC1 [Compound A14, (4-Ethylpiperazin-1-yl)-(7β,15α,25R)-7,15-Dihydroxy-3,11,23-Trioxolanost-8-en-26-oic Amide] | 106.2 ± 4.7 % of Control | 96.2 ± 5.0 % of Control |  | 95.6 ± 1.9 % of Control | 99.3 ± 0.2 % of Control |  | 70.4 ± 1.6 % of Control | 47.3 ± 2.1 % of Control |  |  |  | 198.5 to 199.4 | 102.2 ± 5.9 % of Control |
